Measured values as given in ChEMBL document CHEMBL3769344 (J Med Chem, 2016).

Columns and labels:
[1] = molecular target: Matrix protein 2 (Influenza A virus (A/Udorn/307/1972(H3N2)), UniProt P0DOF8); assay: Inhibition of Influenza A virus wild type M2 proton channel infected in Xenopus laevis oocytes after 2 mins by TEVC assay; assay type: cell-based
[2] = test system: MDCK; assay: Cytotoxicity against MDCK cells assessed as cell viability after 72 hrs by MTT assay; assay type: cell-based, Canis lupus familiaris; details: dog
[3] = test system: Influenza A virus; assay: Antiviral activity against Influenza A virus A/udorn/72(H3N2) expressing wild type M2 proton channel infected in MDCK cells assessed as reduction in plaque formation preincubated for 30 mins followed by infection measured on day 2 post infection by naphthalene black dye-based assay; assay type: functional, organism-based, Influenza A virus (A/udorn/1972(H3N2))

Matrix protein 2 (Influenza A virus (A/Udorn/307/1972(H3N2)), UniProt P0DOF8), sequence (P0DOF8 whole entry): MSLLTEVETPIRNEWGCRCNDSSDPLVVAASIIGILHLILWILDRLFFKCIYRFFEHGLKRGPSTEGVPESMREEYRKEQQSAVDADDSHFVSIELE

Compound | CC50 [2] [µM] | also measured
C1CCC2(CC1)CCNCC2 |  | IC50 [1]: 0.9 µM
OC1C2CC3CC1CC(NCc1cc(-c4cccs4)on1)(C3)C2 (configuration not stated) | 116 | 
c1csc(-c2cc(NC34CC5CC(CC(C5)C3)C4)no2)c1 | 100 | 
c1csc(-c2ncc(CNC34CC5CC(CC(C5)C3)C4)s2)c1 | 113 | 
c1csc(-c2nnc(CNC34CC5CC(CC(C5)C3)C4)s2)c1 | > 200 | 
OC12CC3CC(O)(C1)CC(NCc1cc(-c4cccs4)on1)(C3)C2 | > 200 | 
NC12CC3CC(CC(C3)C1)C2 [AMANTADINE] |  | EC50 [3]: 0.3 µM
